# Tests used:
# [1] = tested on: cell culture; conditions: cell culture experiments, prior report; cited from earlier work
# [2] = AFM, prior report; cited from earlier work
# [3] = Fluorescence assay for inhibition of L-cystine crystal formation (aqueous solubility of L-cystine, OPA/NBC); format: physicochemical; conditions: for Ratio: improvement in potency over the control CDME; for fold increase in potency/activity as compared to CDME: at increasing the aqueous solubility of L-cystine
# Procedure: As used herein, the EC2x's are the concentrations required of the candidate compounds to double the aqueous solubility of cystine and were determined to assess drug potency and potential dosing regimens for in vivo use. One of ordinary skill in the art is readily able to ascertain such information using commonly known methodologies.
# Another aspect of the present invention is directed to the processes of determining the concentration of L-cystine using a fluorescence assay after OPA/NBC derivatization. In at least one embodiment with respect to this aspect of the invention, the concentration of the L-cystine was assessed by a fluorescence assay. Accordingly, the inventors developed a fluorescence-based assay using O-phthaldialdehyde (OPA) and N-Boc-cysteine (NBC) to accurately measure the concentration of L-cystine in aqueous solutions using a similar protocol we previously reported. OPA/NBC are popular reagents used for precolumn derivatization of amino acids in HPLC. This derivatization is fast and simple to operate. However, the reaction of OPA with the disulfide cystine and NBC yielded derivatives with weak fluorescence. The disulfide in cystine was reduced and then alkylated with iodoacetic acid to form S-carboxymethylcysteine, which yielded OPA/NBS derivatives with normal fluorescence. L-Cystine solution was thus used to construct a standard curve. L-Cystine first reacted with DTT for 10 min, followed by reaction with iodoacetic acid for 15 min, then reacted with OPA and NBC for 3 min. The final mixture was pipetted into 384-well plate and the fluorescence intensity was read at Ex 340 nm/Em 460 nm. A linear standard curve was obtained in the concentration range between 50 μM and 400 μM (see FIG. 3).
# Formation of supersaturation solution—a supersaturated solution was formed by dissolving 21 mg of L-cystine in 30 mL of Millipore water (˜3 mM) under reflux at 100° C. for 20 min until the L-cystine was completely dissolved. The supersaturated solution was then allowed to cool slowly with stirring for 75 min.
# Construction of standard curves—L-Cystine (5 mg) was dissolved in Millipore water (34.7 mL) to form a 0.6 mM solution as a stock solution. Then, L-cystine solution was diluted to 0.4, 0.3, 0.2, 0.1, 0.05 mM solution. 10 uL of each L-cystine solutions, 90 uL of 0.1 M dibasic sodium phosphate solution, and 10 uL of DTT solution (12.5 mM) were mixed at r.t. for 10 min, before the addition of 10 uL of iodoacetic acid (100 mM) and continued incubation at r.t. for an additional 15 min. This was then followed by the addition of 10 uL of OPA (100 mM in methanol) and 10 uL of NBC (100 mM in methanol). The derivatization was allowed to proceed for 3 min before 40 uL of the mixture was plated in a 384-well plate and read at Ex 340 nm/Em 460 nm. The standard curve was repeated for each set of experiments and used to calculate the concentration of L-cystine in each sample.
# Determination of L-cystine concentration—All test compounds were dissolved in water to form 10 mM stock solution. 5 uL of each solution was added to 500 uL L-cystine supersaturated solution. The mixtures were allowed to stand at 25° C. for 72 h. At the end of incubation, the mixtures were centrifuged at 10,000 rpm for 4 min and the supernatants were diluted 2-fold for concentration measurement. Each diluted mixture (10 uL), 0.1 M dibasic sodium phosphate solution (90 uL), and 10 uL of DTT solution (12.5 mM) were mixed at r.t. for 10 min, before the addition of 10 uL of iodoacetic acid (100 mM) and continued incubation at r.t. for an additional 15 min. Derivatization was performed by the addition of 10 uL of OPA (100 mM in methanol) and 10 uL of NBC (100 mM in methanol) for 3 min. 40 uL of the derivatized mixture was plated in a 384-well plate and fluorescence was read at Ex 340 nm/Em 460 nm to derive the concentrations of the original mixtures. […]
# [4] = tested on: rats; conditions: prior report; cited from earlier work
# [5] = prior report; cited from earlier work
# [6] = Compound concentration and volume of mouse urine after 7 daily oral doses (LC-MS/MS); format: in vivo, mice; conditions: for oral bioavailability: concluded from urine concentrations after oral dosing
# Procedure: This dose is equivalent to 29 μmol/kg (29 mg/m^2 assuming a body surface area of 0.007 m^2). To determine LH707/LH708 absorption and excretion, these compounds were administered daily for seven days and urine samples collected before and immediately after the last treatment.
# (§1) Urine samples (0.15 to 1.1 ml) were collected by placing the mice in metabolic cages for four hours or longer and frozen at −20° C. The four-week treatment samples were analyzed for amino acids by ion exchange chromatography on a Biochrom analyzer (Biochrom US, Holliston, Mass.) and the amino acid levels normalized to nmol/mg creatinine. The seven-day treatment samples were analyzed for LH707 and LH708 by LC-MS (see below).
# It was determined that the concentrations of LH707/LH708 in the mine samples collected using LC-MS/MS in positive MRM mode (LH707, 379.0→188.9; LH708, 203.1→101.3) on a Transcend LX2 system (Thermo Fisher, Waltham, Mass.) coupled to an API 4000 (AB Sciex, Framingham, Mass.). […] The gradient was performed at a flow rate of 750 μL/min as follows: 95% B for 90 s, 95 to 5% B in 42 s, 5% B for 30 s.
# [7] = tested on: Slc3a1 knockout mice; experiment: In vivo activity in a genetic mouse model, four-week oral treatment (bladder stones, urine amino acids)
# Procedure: Slc3a1 knockout mice in a mixed 129/C57BL6 background were used in the studies described here. Two-mouth old knockout male mice for LH707 or LH708 treatment were selected. […] Most male mice over age six months have bladder stones and some have kidney stones as well. Female knockout mice have crystalluria but no stones until age over 12 months. Mouse genotypes and gender were determined by PCR amplification of tail DNA. Based on previous observations, Slc3a1 heterozygotes have no apparent phenotype so they were used in place of wild-type mice as needed. Animal studies were conducted in accordance with Rutgers University IACUC policies.
# LH707 dihydrochloride (MW 451.43) and LH708 tetrahydrochloride (MW 550.44) were prepared fresh daily (2.9 mM in water) and 200 μl was administered to Slc3a1 knockout male mice (body weight 20 g) by gavage daily for four weeks using a 20G disposable flexible plastic feeding needle with a soft tip (Model FTP-20-30, Instech Laboratories, Inc., Plymouth Meeting, Pa.).
# This dose is equivalent to 29 μmol/kg (29 mg/m^2 assuming a body surface area of 0.007 m^2). […]
# as §1
# Mice were sacrificed after urine collection and the bladder and kidneys removed and placed in 10% formalin. […] This application was evaluated for the assessment of quantitative parameters such as bladder volume, stone volume, and stone number from the scanned 3D datasets.
# After micro CT scanning, bladders were weighed and the stones removed, weighed, counted, and measured in the longest dimension (see FIG. 5). […]
# [8] = concentration required to double the aqueous solubility of cystine, water, 25° C., 72 h
# [9] = effective concentration required to double the solubility of L-cystine in water
smiles,measurement,setting,value
"COC(=O)[C@@H](N)CSSC[C@H](N)C(=O)OC [CDME, L-cystine dimethylester]",concentration causing loss of cell viability,[1],approximately 1 mM
same,growth velocity of six symmetry-equivalent {100} steps of L-cystine crystals,[2],dramatically reduce
same,EC2x,[3]; [8],6.37 mM
same,EC2x,[3]; [9],0.00353 mM
same,Ratio,[3],1.0
same,dosage demonstrating adverse effects,[4],approximately 500 mg/kg per day
same,concentration that almost completely inhibits the crystallization of L-cystine in water,[5],above 2 mg/L
"COC(=O)[C@@H](N)CSSC[C@H](N)C(=O)O [CME, L-cystine methylester]",growth velocity of six symmetry-equivalent {100} steps of L-cystine crystals,[2],dramatically reduce
"N[C@@H](CSSC[C@H](N)C(=O)NC1CC1)C(=O)NC1CC1 [LH704, L-Cystine bis(cyclopropylamide)]",EC2x,[3]; [8],3.53 mM
same,Ratio,[3],1.8
"N[C@@H](CSSC[C@H](N)C(=O)N1CCCCC1)C(=O)N1CCCCC1 [LH706, L-Cystine bispiperidine]",EC2x,[3]; [8],1.59 mM
same,Ratio,[3],4.0
N[C@@H](CSSC[C@H](N)C(=O)N1CCOCC1)C(=O)N1CCOCC1 [LH707],fold increase in potency/activity as compared to CDME,[3]; listed as CDMOR,about 7 fold
same,fold increase in potency/activity as compared to CDME,[3]; listed as VII,7.44 fold
same,EC2x,[3]; [8],0.86 mM
same,EC2x,[3]; [9],0.00086 mM
same,Ratio,[3],7.4
same,concentrations at which inhibition of cystine crystallization in vitro occurs,[3],submicromolar
same,compound concentration in mouse urine,[6]; after 7 daily oral doses,micromolar concentrations
same,oral bioavailability,[6],readily bioavailable
"CN1CCN(C(=O)[C@@H](N)CSSC[C@H](N)C(=O)N2CCN(C)CC2)CC1 [LH708, L-Cystine bis(N′-methylpiperazide)]",fold increase in potency/activity as compared to CDME,[3]; listed as CDNMP,24 fold
same,fold increase in potency/activity as compared to CDME,[3]; listed as VIII,24.41 fold
same,EC2x,[3]; [8],0.26 mM
same,EC2x,[3]; [9],0.00026 mM
same,Ratio,[3],24.4
same,concentrations at which inhibition of cystine crystallization in vitro occurs,[3],submicromolar
same,efficacy at inhibiting cystine stone formation,"[7]; Slc3a1 knockout male mice, gavage daily for four weeks, LH708 versus LH707",better efficacy
same,"urine concentration of other amino acids (ornithine, lysine, arginine, proline, valine, leucine, phenylalanine)",[7]; four-week treatment,no significant changes
same,concentration of cystine in mouse urine as compared to before treatment,"[7]; four-week treatment, paired t-test",significantly increased
same,compound concentration in mouse urine,[6]; after 7 daily oral doses,micromolar concentrations
same,compound concentration in urine of Slc3a1 knockout mice versus control or normal mice,"[6]; after 7 daily oral doses, FIG. 7",significantly higher concentrations
same,oral bioavailability,[6],readily bioavailable
"N[C@@H](CSSC[C@H](N)C(=O)NCCO)C(=O)NCCO [LH709, L-Cystine diethanolamide]",EC2x,[3]; [8],2.02 mM
same,Ratio,[3],3.2

# Source: patent US11420949B2, “Cystine diamide analogs for the prevention of cystine stone formation in cystinuria” (Rutgers, The State University of New Jersey, priority 2013, dated 2022)
